Measured values as given in patent US11834414B2, “1-methyl-4-[(4-phenylphenyl)sulfonylmethyl]cyclohexyanol and 1-methyl-4-[[4-(2-pyridyl)phenyl]sulfonylmethyl]cyclohexanol compounds and their therapeutic use” (Modern Biosciences Limited, priority 2018, dated 2023).
Values after ≈ are worked out from the molar mass of the structure shown.

Legend:
[1] = system: Thp1 human monocytic cells; experiment: Thp1 Monocyte ATP Production Assay; format: cell-based; details: for IC50: Homo sapiens, THP-1, 24 h, Thp1 cells, 24 hour incubation, ATPLite, 9-point range 10 μM to 10 nM, mean of 2 independent experiments
How it was run: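 Cells plated at 112500/well in glucose-free RPMI-1640 with 1% FBS and exposed to compound for 24 h at 37 °C/5% CO2. ATP quantified by luciferase luminescence (ATPlite) and expressed as % of control viability. IC50 from 4-parameter fit, mean of two experiments.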

[2] = system: cytochrome P450 (CYP450) enzymes
CYP3A4 = CYP3A4 (Homo sapiens (Human), UniProt P08684); experiment: Human Cytochrome P450 Inhibition Assay (Bactosomes); format: in vitro ADME; details: recombinant Bactosomes, 10 minutes, 37° C.
CYP3A4, sequence (P08684 whole entry): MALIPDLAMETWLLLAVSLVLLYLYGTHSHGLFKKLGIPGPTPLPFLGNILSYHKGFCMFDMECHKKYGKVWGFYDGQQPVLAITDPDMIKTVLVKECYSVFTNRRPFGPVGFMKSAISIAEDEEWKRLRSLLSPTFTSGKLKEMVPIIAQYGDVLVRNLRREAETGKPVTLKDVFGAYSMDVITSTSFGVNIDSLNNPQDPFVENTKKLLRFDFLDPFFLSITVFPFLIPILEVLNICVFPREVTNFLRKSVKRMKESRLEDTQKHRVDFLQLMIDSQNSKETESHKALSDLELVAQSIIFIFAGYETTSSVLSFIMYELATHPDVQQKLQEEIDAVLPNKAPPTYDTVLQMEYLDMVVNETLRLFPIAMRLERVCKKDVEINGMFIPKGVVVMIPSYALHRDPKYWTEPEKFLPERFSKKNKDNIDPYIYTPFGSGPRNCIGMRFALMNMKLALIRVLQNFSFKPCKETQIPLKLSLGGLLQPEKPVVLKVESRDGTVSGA

[3] = Aqueous solubility in FaSSIF; format: physicochemical; details: pH 6.5, three replicates; for solubility at 16 h: kinetic from dmso stock
Description: Aqueous solubility was measured by equilibration of compounds with fasted state simulated intestinal fluid (FaSSIF) and quantified spectrophotometrically.
Preparation of blank FaSSIF: 0.21 g of sodium hydroxide (NaOH) pellets, 1.97 g of dihydrogen sodium phosphate (NaH2PO4.2H2O) and 3.09 g of sodium chloride (NaCl) were dissolved in 400 mL of deionised water. The pH was adjusted to 6.5 using 1 M hydrochloric acid and further deionised water added to a final volume of 500 mL.
Preparation of FaSSIF: 0.056 g of SIF Powder (containing sodium taurocholate and lecithin) (Phares AG) was dissolved in 25 mL of blank FaSSIF and stirred until the powder was completely dissolved. The solution was allowed to stand for 2 hours during which it became opalescent; it was used within 24 hours. The final solution composition was characterised as follows: • Sodium taurocholate: 3 mM • Lecithin: 0.75 mM • Osmolarity: 270±10 mOsmol • pH: 6.5
The optical density was measured at the end of the incubation period for test compounds and a reference used to determine solubility. In brief, two samples were prepared for each determination: a reference sample consisting of a stock solution of test compound in DMSO diluted in system solution (a phosphate free, low absorption buffer) and propanol; and a test sample (prepared in triplicate) consisting of 0.5 mL FaSSIF spiked with test compound at 0.2 mM. Each sample was incubated at room temperature for 16 hours with constant shaking at 250 rpm. At the end of the incubation period, 0.3 mL of each sample was filtered through a pION filter plate (PION, Woburn MA), diluted 1:1 with propanol and scanned using UV spectrophotometry at λmax ([…]) using a Spectra Max Plus—Version 2.1000 (Molecular Devices, Sunnyvale, CA), with pSOL Explorer solubility determination software (pION, Woburn, MA).
FaSSIF solubility was calculated using the following formula:
[formula] • wherein: • “OD” is the optical density; • “Cr” is the concentration of the reference (33.4 μM); and • “molecular weight” is for the test compound (e.g., 381.44 for ABD735).

CYP2C19 = CYP2C19 (Homo sapiens (Human), UniProt P33261); experiment: Human Cytochrome P450 Inhibition Assay (Bactosomes); format: in vitro ADME; details: recombinant Bactosomes, 10 minutes, 37° C.
CYP2C19, sequence (P33261 whole entry): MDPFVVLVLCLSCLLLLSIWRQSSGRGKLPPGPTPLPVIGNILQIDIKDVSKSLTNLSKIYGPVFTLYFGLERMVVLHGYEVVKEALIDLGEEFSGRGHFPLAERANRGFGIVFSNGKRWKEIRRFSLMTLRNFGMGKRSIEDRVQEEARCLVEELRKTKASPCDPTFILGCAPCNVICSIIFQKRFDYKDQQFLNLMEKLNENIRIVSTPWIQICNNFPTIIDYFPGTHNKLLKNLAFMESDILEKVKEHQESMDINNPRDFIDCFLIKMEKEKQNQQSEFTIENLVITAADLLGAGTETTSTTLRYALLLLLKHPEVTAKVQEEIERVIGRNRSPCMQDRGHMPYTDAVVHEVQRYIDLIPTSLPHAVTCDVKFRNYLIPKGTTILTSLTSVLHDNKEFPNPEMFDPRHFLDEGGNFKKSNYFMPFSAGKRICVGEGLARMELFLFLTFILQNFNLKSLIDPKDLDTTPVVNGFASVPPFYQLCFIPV

[4] = system: collagen-induced arthritis in DBA/1j mice; experiment: Mouse Collagen-Induced Arthritis; format: in vivo; details: 10 mg/kg/day, once daily for 14 days, arthritic index vs control
Description: Seven- to eight-week-old male DBA/1j mice were used for all procedures. Animals were housed in groups of 10, and were maintained at 21° C.±2° C. on a 12-hour light/dark cycle with food and water ad libitum. Complete Freund's adjuvant (CFA) was prepared by emulsifying bovine type II collagen at 4 mg/mL with a 4 mg/mL suspension of Mycobacterium tuberculosis H37Ra in Incomplete Freund's Adjuvant (IFA) (0.85 mL paraffin oil and 0.15 mL mannide monooleate) in a 1:1 (v/v) ratio. All mice were immunised subcutaneously with 200 μg of bovine type II collagen in CFA. 21 days later, all mice were immunised subcutaneously with 100 μg of bovine type II collagen in IFA. The mice started to develop signs and symptoms of arthritis following the ‘booster’ immunisation.
For macroscopic assessment of arthritis, the following signs were monitored in each paw of each mouse three times per week and summed to generate the Arthritic Index (AI) (the maximum AI for one animal is 16): • 0=no visible effects of arthritis. • 1=oedema and/or erythema of 1 digit. • 2=oedema and/or erythema of 2 digits. • 3=oedema and/or erythema of more than 2 digits. • 4=severe arthritis of entire paw and digits.
Animals were sorted into treatment groups with a mean arthritic index of 2.5 and then dosed once daily for 14 days with compound: by oral gavage for test compounds, or by subcutaneous injection at a dose of 10 mg/kg for the positive control, etanercept. After completion of the experiment, the mice were sacrificed.
The data were analysed by generating an average of the arthritic index across each treatment group. The mean arthritic index was then compared to the arthritic index of control (untreated) animals using the following formula to generate a percentage inhibition of disease.

Compound | IC50 [1] [µM] | drug-drug interaction liability, CYP450 inhibition profile (in words) [2] | IC50 (CYP3A4) [µM] | solubility at 16 h [3] [µg/mL] | IC50 (CYP2C19) [µM] | % inhibition of disease [4] [%] | potency in the Thp1 monocytic ATP assay (in words) ([1]; compared to the reference compounds) | Solubility ([3]; 16 hours) [µg/mL]
C[C@]1(O)CC[C@@H](CS(=O)(=O)c2ccc(-c3ncc(F)cc3F)c(F)c2)CC1 [CHMSA-03-A, cis-4-(((4-(3,5-difluoropyridin-2-yl)-3-fluorophenyl)sulfonyl)methyl)-1-methylcyclohexan-1-ol] | 0.7 | particularly good profile | > 50 | 70 (≈ 175 µM) | > 50 | 62 | – | –
C[C@]1(O)CC[C@@H](CS(=O)(=O)c2ccc(-c3ccc(C#N)cc3F)cc2)CC1 [CHMSA-01-A, 2-fluoro-4′-(((cis-4-hydroxy-4-methylcyclohexyl)methyl)sulfonyl)-[1,1′-biphenyl]-4-carbonitrile] | 0.7 | particularly good profile | > 50 | 10 (≈ 25.8 µM) | > 50 | 63 | – | –
C[C@]1(O)CC[C@@H](CS(=O)(=O)c2ccc(-c3ccc(C#N)cc3F)cc2C(F)(F)F)CC1 [CHMSA-02-A, 2-fluoro-4′-(((cis-4-hydroxy-4-methylcyclohexyl)methyl)sulfonyl)-3′-(trifluoromethyl)-[1,1′-biphenyl]-4-carbonitrile] | 0.1 | particularly good profile | > 50 | 20 (≈ 43.9 µM) | > 50 | – | excellent potency | –
C[C@]1(O)CC[C@H](NS(=O)(=O)c2ccc(-c3ccc(Cl)cc3C#N)cc2)CC1 [HMC-C-01-A, reference compound] | 0.63 | – | > 25 | – | > 25 | 40 | – | 60 (≈ 148 µM)
